From patent US20260365684A1, “PHYTOSPHINGOSINE-3,4-CYCLICPHOSPHATE COMPOUND AND PHARMACEUTICAL COMPOSITION COMPRISING THE SAME” (AXCESO BIOPHARMA CO., LTD., priority 2022, published 2026)

Experiments:
[1] = system: MYSEC (murine yolk sac endothelial cell) cell lines; test: In vitro permeability of MYSEC cell line (LPS, trans well, HRP); assay type: cell-based; conditions: FIG. 11A
Experimental: Permeability was measured by an in vitro method using cell culture and in vivo method using Evans blue dye. To increase permeability, LPS was used in the in vitro method and CLP treatment was used in the in vivo method.
To measure permeability by an in vitro method, MYSEC (murine yolk sac endothelial cell) cell lines were used. MYSEC cell lines were placed in the top chamber of a trans well at 2.5×10^5 cells/well and treated with 300 ng of lipopolysaccharide (LPS) derived from Gram-negative bacteria in the presence of the compound of formula (1a-1) for 24 hours. The medium in the top chamber was replaced with 300 μl of serum-free medium containing 5 μl of streptoavidin-HRP. After 5 minutes, 20 μl of the medium in the lower chamber was taken and the activity of HRP was measured as absorbance at 450 nm.
To determine the mechanism by which the compound of formula (1a-1) improves permeability, the same experiment was performed by knocking down the SIRT1 protein in the MYSEC cell line.

Tau protein = test: Expression of Tau in brain of AD-induced animal model by fluorescence microscopy; assay type: in vivo; conditions: mouse brain, 1 mg/kg i.p. once every 3 days for 2 weeks, FIG. 3
Experimental: To determine the therapeutic effect on Alzheimer's Disease (AD), the effects on amyloid beta monomer (monomeric Aβ, mAβ) and Tau protein, which are biomarkers of AD, were analyzed in an AD-induced animal model.
APP/PS/Tau transgenic mice were used as an AD-induced animal model. The compound of formula (1a-1) was administered intraperitoneally once every 3 days at a concentration of 1 mg/kg to 12-week-old transgenic mice for 2 weeks, and the expression of mAβ and Tau proteins in the mouse brain was measured after 1 and 4 weeks. After anesthetizing the mouse, the cervical region was incised with a dissecting tool, and then the occipital region was incised to remove both sides of the skull. The brain was washed with phosphate buffered saline (PBS) and fixed with 4% paraformaldehyde (Sigma, St Louis, MO, USA) for 12 hours at 4 °C. These were cut to a thickness of approximately 10 μm using a vibratome, and hippocampus and cortex sections were collected and placed in 24 wells. PBS was added to the wells containing the fixed tissue sections, and fluorescent nanoparticles (QD565, red fluorescence) conjugated with anti-amyloid antibodies and anti-Tau antibodies (Santa Cruz, USA) were added to each 2 μM, and reacted at 4 °C for 12 hours. The expression of mAβ and Tau was confirmed by fluorescence microscopy.

IL-6 = IL-6 in serum after CLP treatment by ELISA; assay type: in vivo, mouse; conditions: serum at 18 hours, treated at 6 and 16 hours after CLP; FIG. 10
Experimental: After CLP treatment, the inflammatory cytokines TNF-α and IL-6 were analyzed by ELISA.
Specifically, after treating the compound of formula (1a-1) at 6 and 16 hours after CLP treatment, mouse blood was collected at 18 hours and allowed to stand at room temperature for 1 hour, then centrifuged at 3000 rpm for 10 minutes to obtain serum to analyze the amount of TNF-α and IL-6.

lungs of mice = test: Acute respiratory distress syndrome induced by CLP: lung histology, lung injury score, wet-to-dry weight ratio; assay type: in vivo, mouse; conditions: treated at 6 and 16 hours after CLP, lungs harvested at 18 hours
Experimental: CLP induces pulmonary edema due to increased inflammation and disruption of the vascular barrier, resulting in acute respiratory distress syndrome (ARDS). To determine the effect on ARDS, the compound of formula (1a-1) was treated at 6 and 16 hours after CLP treatment in the same manner as in Experimental Example 7 above, the lungs of mice were harvested at 18 hours for histological analysis, and the wet-to-dry weight ratio of the lungs was obtained. For comparison, mice without CLP treatment served as a control group.
For histologic analysis, the harvested lungs were fixed in 10% paraformaldehyde, infiltrated with paraffin, sectioned into 5 μm-thick tissues, and then de-paraffinized with xylene. Sectioned tissues were mounted on slides, stained with H&E, and observed under an optical microscope. In addition, the lung tissue damage was evaluated by histological score to obtain the lung injury score (LIS) for each group.
To calculate the wet-to-dry weight ratio, lung organs were harvested 18 hours after CLP treatment, and the wet weight was measured immediately after harvesting, and the dry weight was measured after drying in an oven at 60 °C for 48 hours to calculate the wet-to-dry weight ratio. The wet-to-dry weight ratio is used as an indicator of organ edema formation.

SIRT1 = SIRT1 expression in HUVECs by western blot; assay type: cell-based, human
Experimental: To determine the increase in SIRT1 expression by the compound of formula (1a-1) prepared in Example 1 above in human umbilical vein endothelial cells (HUVECs), HUVECs were seeded at 5×10^5/4 ml in a 60 mm cell culture dish using ECBM2 medium (Promocell) and stabilized for 12 hours in an incubator maintained at 37 °C and 5% CO2, respectively.
The cells were then treated with 10 nM, 100 nM and 1000 nM of the compound of formula (1a-1) prepared in Example 1 above, respectively, and incubated for another 24 hours, and then SIRT1 expression was determined by western blot.

α-synuclein = α-synuclein expression in differentiated SH-SY5Y dopaminergic neurons by western blot; assay type: cell-based, human; conditions: FIG. 6
Experimental: To analyze the effect on the expression of tyrosine hydroxylase (TH) and α-synuclein as neuron-specific proteins, western blot was performed.
SH-SY5Y cell line was treated with retinoic acid and 12-O-tetradecanoylphorbol-13-acetate (TPA) to induce differentiation into TH-secreting neurons for 6 days.
Differentiated dopaminergic neurons were lysed in PRO-PREP (Intronbio), a cell lysis solution containing protease inhibitor cocktail (Gendepot), and electrophoresed in 10% SDS polyacrylamide gels at 20 μg/well. Transfer was performed using PVDF (Merck millipore) as a membrane, and tyrosine hydroxylase antibody, «-synuclein antibody (Cell signaling), and β-actin antibody (Santa Cruz) were used for reaction for more than 2 hours. Protein expression was detected by staining with ECL substrate (Biorad) for development and graphed using the image J program.

CCCCCCCCCCCCCC[C@H]1OP(=O)(O)O[C@H]1[C@@H](N)CO.Cl [formula (1a-1), (4S,5R)-4-((S)-1-amino-2-hydroxyethyl)-2-hydroxy-5-tetradecyl-1,3,2-dioxaphosphoran-2-oxide hydrochloride]
permeability, SIRT1 knockdown ([1]; MYSEC with knockdown of SIRT1 protein, LPS): does not show the effect
permeability ([1]; MYSEC, 300 ng LPS, 24 hours): restores the LPS-induced increased permeability to normal
red fluorescence for Tau (Tau protein; 1 week and 4 weeks after): negligible red fluorescence for mAβ and Tau
expression of Tau protein (Tau protein): significantly reduced
amount of IL-6 (IL-6): significantly decreased
lung tissue damage (histology, H&E) (lungs of mice; FIG. 9A): the lung tissue is almost restored to normal
lung injury score (LIS) (lungs of mice; FIG. 9B): almost restores the lung injury score to normal
wet-to-dry weight ratio of the lung (lungs of mice; FIG. 9C): restores the wet-to-dry weight ratio of the lung to normal
concentration increasing SIRT1 expression relative to that of resveratrol (SIRT1; HUVEC EC50 about 10 nM vs known EC50 of resveratrol approximately […] μM): thousands of times lower than that of resveratrol
increase in SIRT1 expression (SIRT1; HUVECs, 10 nM, 100 nM and 1000 nM, 24 hours, FIG. 1): increases the expression of SIRT1 even at a very low concentration of 10 nM
EC50 (SIRT1; Homo sapiens, HUVEC, HUVECs, 24 hours, western blot, read-out: concentration (EC50) that increased the expression of SIRT1 by 50%): ~10 nM
expression of α-synuclein (α-synuclein; differentiated dopaminergic neurons treated with rotenone (RT)): the expression of α-synuclein increased by rotenone was decreased
effectiveness relative to resveratrol (control drug), α-synuclein expression (α-synuclein; rotenone-treated differentiated dopaminergic neurons): more effective than resveratrol
